For this experiment, the system named is mushroom-derived tyrosinase. Briefly: Tyrosinase activity inhibition (dopachrome formation from L-dopa, absorbance at 490 nm). It counts as biochemical. To be noted: for Inhibitory Rate (%): 37° C., 30 minutes; for tyrosinase inhibitory activity compared with comparative drugs: comparison in words. As to the method: As test substances, the composition prepared in Example 1 and four types of anthocyanin crystal prepared in Example 2 were used. To a 96-well plate, 40 μl of mushroom-derived tyrosinase (125 unit/ml; dissolved in a 67 mmol/l phosphate buffer solution; […] Sigma), and 40 μl of an inhibitor solution were added. The plate was allowed to stand for 37° C. for 30 minutes. Then, the amount of dopachrome produced was determined by absorbance at 490 nm. Tyrosinase inhibitory activity was expressed as an inhibitory rate obtained by the following equation: Inhibitory Rate (%)=[([…]: absorbance at 490 nm of a control solution • B: absorbance at 490 nm of a control solution (blank solution) • C: absorbance at 490 nm of an anthocyanin solution • D: absorbance at 490 nm of an anthocyanin solution (blank solution).

`OC[C@H]1O[C@@H](Oc2ccc(O)cc2)[C@H](O)[C@@H](O)[C@@H]1O` [Arbutin, reference compound]: the “Inhibitory Rate (%)” value (inhibitor concentration 10 mM (2.7 mg/ml)) is given as 10.4%.

Turning to `OC[C@H]1O[C@@H](Oc2cc3c(O)cc(O)cc3[o+]c2-c2ccc(O)c(O)c2)[C@H](O)[C@@H](O)[C@@H]1O` [C3G (Example 2), cyanidin-3-glucoside], the “tyrosinase inhibitory activity compared with comparative drugs” value was “tyrosinase inhibitory activity at the same level as that found in comparative drugs such as kojic acid, arbutin”. Moreover, the “Inhibitory Rate (%)” value (inhibitor concentration 0.2 mM) was 45.0%.

Consider `OC[C@H]1O[C@@H](Oc2cc3c(O)cc(O)cc3[o+]c2-c2cc(O)c(O)c(O)c2)[C@H](O)[C@@H](O)[C@@H]1O` [D3G (Example 2), delphinidin-3-glucoside], for which the “tyrosinase inhibitory activity compared with comparative drugs” value is listed as “tyrosinase inhibitory activity at the same level as that found in comparative drugs such as kojic acid, arbutin”. Further, the “Inhibitory Rate (%)” value (inhibitor concentration 0.2 mM) amounted to 67.5%.

For `CC1O[C@@H](OC[C@H]2OC(Oc3cc4c(O)cc(O)cc4[o+]c3-c3cc(O)c(O)c(O)c3)[C@H](O)C(O)C2O)C(O)C(O)[C@H]1O` (stereo partly shown) [D3R (Example 2), delphinidin-3-rutinoside], the “tyrosinase inhibitory activity compared with comparative drugs” value is “tyrosinase inhibitory activity at the same level as that found in comparative drugs such as kojic acid, arbutin”. Besides, for the setting “inhibitor concentration 0.2 mM”, the “Inhibitory Rate (%)” value is on record as 70.1%.

Turning to `N[C@@H](CCC(=O)N[C@@H](CS)C(=O)NCC(=O)O)C(=O)O` [Glutathione, reference compound], the “Inhibitory Rate (%)” value (inhibitor concentration 0.2 mM) is recorded as 13.2%.

For `O=c1cc(CO)occ1O` [Kojic Acid, reference compound], under “inhibitor concentration 0.2 mM”, the “Inhibitory Rate (%)” value was found to be 34.7%.

In the case of `N[C@@H](CS)C(=O)O` [L-Cysteine, reference compound], where the note is “inhibitor concentration 0.2 mM”, the “Inhibitory Rate (%)” value amounted to 29.8%.

Values taken from patent US7863248B2, “Tyrosinase activity inhibitor and ameliorant for facial blood flow” (Meiji Seika Kaisha, Ltd., priority 2003, dated 2011).
